This is an account of results in the Deep4Chem optical property database.

Molecules are shown by their SMILES.

This series in a line: solvent given as SMILES.

For the molecule `CC(=O)Nc1ccc2c3cccc4cccc(c5cccc1c52)c43`, the fluorescence lifetime turned out to be 3.8 ns (in CCOC(C)=O) and 4.5 ns (in CS(C)=O).

As to `CC1(C)c2ccccc2N(c2ccc(C(=CC#N)c3ccc(N4c5ccccc5C(C)(C)c5ccccc54)cc3)cc2)c2ccccc21`, under “in Cc1ccccc1”, the fluorescence lifetime is 5.09 ns.

On to `CCN(CC)c1ccc2cc(/C=C/C(=C(C#N)C#N)c3ccc4c(c3)c3ccccc3n4CC)c(=O)oc2c1`, for which the fluorescence lifetime is, setting by setting: (in CC(C)=O) 4.49 ns; (in CCOC(C)=O) 3.49 ns; (in CN(C)C=O) 4.81 ns; (in CS(C)=O) 4.66 ns; (in Cc1ccccc1) 1.15 ns; (in ClCCl) 3.32 ns.

In turn, `c1ccc(-c2nc(-c3ccccc3)nc(-c3ccc(N4c5ccccc5C5(c6ccccc6-c6ccccc65)c5ccccc54)cc3)n2)cc1` displayed a fluorescence lifetime (in O=P(c1ccccc1)(c1ccccc1)c1ccccc1Oc1ccccc1P(=O)(c1ccccc1)c1ccccc1) of 33 ns.

For `CC1(C)C(/C=C/C2=C(Oc3ccc(CCN=C=S)cc3Br)C(=C/C=C3/N(CCCS(=O)(=O)[O-])c4ccccc4C3(C)C)/CCC2)=[N+](CCCS(=O)(=O)[O-])c2ccccc21`, the fluorescence lifetime (in CO) turned out to be 0.912 ns.

Under “in ClCCl”, `F[B-]1(F)n2c(c3cccc4cccc2c43)=Nc2sc3ccccc3[n+]21` returned a fluorescence lifetime of 6.6 ns.

On to `CC1(C)c2ccccc2N(c2ccc(-c3ccc4c(c3)C(=O)c3ccc(-c5ccc(N6c7ccccc7C(C)(C)c7ccccc76)cc5)cc3C4=O)cc2)c2ccccc21`, for which the fluorescence lifetime runs as follows: (in Cc1ccccc1) 4.2 ns; (in c1ccc2c(c1)c1ccccc1n2-c1ccc(-c2ccc(-n3c4ccccc4c4ccccc43)cc2)cc1) 41 ns.

In the case of `CN(C)c1ccc(/C=C/C=C2\CC/C(=C\C=C\c3ccc(N(C)C)cc3)C2=O)cc1`, the fluorescence lifetime reads like this: (in C1CCCCC1) 0.48 ns; (in CC#N) 0.49 ns; (in CC(C)=O) 0.8 ns; (in CC(C)O) 0.56 ns; (in CCCCCC) 0.86 ns; (in CCCCO) 0.37 ns. In addition, the fluorescence lifetime was found to be 0.19 ns (in CCCO); 0.24 ns (in CCO); 0.69 ns (in CCOC(C)=O); 0.76 ns (in CCOCC); 0.67 ns (in CN(C)C=O); 0.21 ns (in CO). For the same molecule, the fluorescence lifetime (in CS(C)=O) stood at 0.58 ns; the fluorescence lifetime (in Cc1ccccc1) is 0.86 ns; the fluorescence lifetime (in ClC(Cl)(Cl)Cl) was 0.76 ns; the fluorescence lifetime (in ClCCl) came out at 1.08 ns; the fluorescence lifetime (in OCC(F)(F)F) was 0.14 ns; the fluorescence lifetime (in S=C=S) came out at 0.83 ns. The fluorescence lifetime was found to be 0.81 ns (in c1ccccc1) and 1.17 ns (in c1ccncc1).

`Cc1ccc(-c2oc3cccc4c5c(-c6ccc(C)cc6)/c(=N/S(=O)(=O)C(F)(F)F)oc6cccc(c2c34)c65)cc1`: for the setting “in ClC(Cl)Cl”, the fluorescence lifetime worked out at 5.4 ns.

In turn, `CC(C)[Si]1(C(C)C)c2cc(C#N)ccc2-c2ccc(N(C)C)cc21` showed a fluorescence lifetime (in C1CCCCC1) of 2.6 ns and a fluorescence lifetime (in ClCCl) of 2.6 ns.

In turn, `c1ccc(-c2cc(-c3ccccc3)cc(-c3ccc4c(c3)C3(c5ccccc5-4)c4ccccc4-c4c3c3c5ccccc5c(-c5cc(-c6ccccc6)cc(-c6ccccc6)c5)cc3c3ccccc43)c2)cc1` (configuration not stated) returned a fluorescence lifetime (in Cc1ccccc1) of 2.14 ns.

Take `C/C=C/c1cc(OC)cc(OC)c1`: the fluorescence lifetime runs as follows: (in CC#N) 2.9 ns; (in CCCCCC) 1.5 ns.

Molecule `CCCCc1cc(-c2cccc(COC)c2)oc1-c1cccc(-c2cc(CCCC)c(-c3cccc(-c4cc(CCCC)c(-c5cccc(-c6oc(-c7cccc(-c8oc(-c9cccc(-c%10oc(-c%11cccc(COC)c%11)cc%10CCCC)c9)cc8CCCC)c7)cc6CCCC)c5)o4)c3)o2)c1` yielded a fluorescence lifetime (in ClC(Cl)Cl) of 1.35 ns.

`c1ccc(-c2cc(-c3ccccc3)cc(-c3ccc4c(c3)C3(c5cc(-c6cc(-c7ccccc7)cc(-c7ccccc7)c6)ccc5-4)c4ccccc4-c4c3c3c5ccccc5ccc3c3ccccc43)c2)cc1` displayed a fluorescence lifetime (in Cc1ccccc1) of 3.07 ns.

As to `Cc1cccc2c3ccccc3n(-c3ccc(-c4c(-c5ccccc5)c(C#N)c(C#N)c(-c5ccccc5)c4-c4ccc(-n5c6ccccc6c6cccc(C)c65)cc4)cc3)c12`, the fluorescence lifetime (in O=P(c1ccccc1)(c1ccccc1)c1ccc2oc3ccc(P(=O)(c4ccccc4)c4ccccc4)cc3c2c1) turned out to be 41 ns.

In turn, `Cc1ccc2nc3[nH]c(=O)[nH]c(=O)c3nc2c1C` gave a fluorescence lifetime (in CC#N) of 2.41 ns.

Molecule `CN(C)c1ccc(C(=Cc2ccc(C=O)cc2)c2ccc(N(C)C)cc2)cc1` registered a fluorescence lifetime (in C1CCOC1) of 7 ns.

As to `CCn1c2ccsc2c2c3nsnc3c3c4sccc4n(CC)c3c21`, the fluorescence lifetime reads like this: (in C1CCOC1) 23.7 ns; (in CCOC(C)=O) 24.2 ns; (in CN(C)C=O) 22.1 ns; (in Cc1ccccc1) 19.4 ns; (in ClCCl) 16.6 ns.

As for `CCOC(=O)c1cc(C)n2nc(-c3ccccc3)ccc12`, under “in CCCCCC”, the fluorescence lifetime was 17.4 ns.

`CCCCCCOc1ccc(C#Cc2ccc(C#CC#Cc3ccc(C#Cc4ccc(OCCCCCC)c(OCCCCCC)c4)c4nsnc34)c3nsnc23)cc1OCCCCCC`: the fluorescence lifetime is, setting by setting: (in CN(C)C=O) 0.5 ns; (in COc1ccccc1) 2.2 ns; (in Cc1ccccc1) 1.9 ns; (in ClC(Cl)Cl) 2.6 ns; (in ClCCCl) 2 ns; (in ClCCl) 2.5 ns.

For the molecule `c1ccc(-c2ccc3c(c2)c2cc(-c4ccccc4)ccc2n3-c2ccc3c(c2)c2cc(-n4c5ccc(-c6ccccc6)cc5c5cc(-c6ccccc6)ccc54)ccc2n3-c2ccc(-c3nc(-c4ccccc4)nc(-c4ccccc4)n3)cc2)cc1`, for the setting “in Cc1ccccc1”, the fluorescence lifetime amounted to 6.3 ns.

In turn, `CC1(C)C(/C=C/C2=C(Cl)C(=C/C=C3/N(CCCCS(=O)(=O)[O-])c4ccc5ccccc5c4C3(C)C)/CCC2)=[N+](CCCCS(=O)(=O)[O-])c2ccc3ccccc3c21` displayed a fluorescence lifetime (in CC(C)=O) of 0.43 ns; a fluorescence lifetime (in CCO) of 0.38 ns; a fluorescence lifetime (in CO) of 0.25 ns; a fluorescence lifetime (in CS(C)=O) of 0.5 ns; a fluorescence lifetime (in ClC(Cl)Cl) of 0.73 ns; a fluorescence lifetime (in ClCCl) of 0.59 ns. For the setting “in O”, this molecule displayed a fluorescence lifetime of 0.13 ns.

With `FC(F)(F)c1ccc(-n2c(-c3ccc(N(c4ccc(-c5ccc(N(c6ccc(-c7nc8c9ccccc9c9ccccc9c8n7-c7ccc(C(F)(F)F)cc7)cc6)c6ccc(-c7nc8c9ccccc9c9ccccc9c8n7-c7ccc(C(F)(F)F)cc7)cc6)cc5)cc4)c4ccc(-c5nc6c7ccccc7c7ccccc7c6n5-c5ccc(C(F)(F)F)cc5)cc4)cc3)nc3c4ccccc4c4ccccc4c32)cc1`, the fluorescence lifetime (in ClCCl) was 1.61 ns.

Regarding `c1ccc(-c2nc(-c3ccc(-c4ccc(-c5ccc(-c6nc(-c7ccccc7)c(-c7ccccc7)o6)cc5)cc4)cc3)oc2-c2ccccc2)cc1`, the fluorescence lifetime (in C1COCCO1) came to 0.78 ns.

For `O=Cc1ccc(N(c2ccc(C=O)cc2)c2ccc(-c3ccc4c(c3)C(=O)c3ccccc3C4=O)cc2)cc1`, the fluorescence lifetime worked out at 2.01 ns (in C1CCOC1); 1.49 ns (in CCOC(C)=O); 6.6 ns (in CCOCC); 6.83 ns (in Cc1ccccc1); 2.82 ns (in ClC(Cl)(Cl)Cl); 0.79 ns (in ClCCl).

Consider `N#Cc1ccc2nc3c(=O)[nH]c(=O)[nH]c3nc2c1`, for which, where the note is “in ClCCCl”, the fluorescence lifetime was 0.16 ns.

Regarding `COc1ccc2c(c1)c1cc(OC)ccc1n2-c1ccc(S(=O)(=O)c2ccc(-n3c4ccc(OC)cc4c4cc(OC)ccc43)cc2)cc1`, under “in Cc1ccccc1”, the fluorescence lifetime came out at 11 ns.

`COc1ccc(C#Cc2c3ccccc3c(C#Cc3ccc(OC)cc3)c3cc4sc(C)cc4cc23)cc1` gave a fluorescence lifetime (in ClCCl) of 5.3 ns.

`COc1nc(Cl)nc(Nc2ccc3c4cccc5cccc(c6cccc2c63)c54)n1`: the fluorescence lifetime by setting is: (in CCOC(C)=O) 3.5 ns; (in CS(C)=O) 4 ns.

For `CN1C(=CC=Cc2nc3nc4ccccc4nc3s2)C(C)(C)c2ccccc21`, the fluorescence lifetime is, setting by setting: (in CCCCCCC(C)O) 1.04 ns; (in CCOC(C)=O) 0.92 ns; (in CO) 0.18 ns; (in CS(C)=O) 1.04 ns; (in Cc1ccccc1) 0.11 ns; (in ClC(Cl)Cl) 1.08 ns. The fluorescence lifetime (in ClCCl) stood at 0.99 ns.

For the molecule `C(#Cc1ccccc1)C(C#Cc1ccccc1)=Cc1ccc(-c2ccc(C=C(C#Cc3ccccc3)C#Cc3ccccc3)cc2)cc1`, the fluorescence lifetime (in ClC(Cl)Cl) amounted to 0.7 ns.

Molecule `CCN(CC)c1ccc2cc(C#N)c(=N)oc2c1` showed a fluorescence lifetime (in ClCCl) of 2.9 ns.

As for `N#Cc1cc2ccc([O-])cc2oc1=O`, under “in O”, the fluorescence lifetime stood at 3.96 ns.

Under “in ClC(Cl)Cl”, `CN(C)c1ccc(C2=Cc3cccc[n+]3[B-](F)(F)O2)cc1` came in with a fluorescence lifetime of 2.68 ns.

For `CC(C)(C)c1ccc(C2=C(c3ccc(N(c4ccccc4)c4ccccc4)cc3)S(=O)(=O)c3c2sc(-c2ccc(N(c4ccccc4)c4ccccc4)cc2)c3-c2ccc(C(C)(C)C)cc2)cc1`, the fluorescence lifetime (in C1CCOC1) came to 3.03 ns.

As to `CC1(C)CC(/C=C/c2ccc(N3CCOCCOCCOCCOCC3)cc2)=CC(=C(C#N)C#N)C1`, the fluorescence lifetime (in CCO) was 0.79 ns.

`Cc1ccc(/C2=c3\cc/c(o3)=C(\c3ccc(C)cc3)c3ccc([nH]3)-c3ccc4n3[P-](=O)(=O)[N+]3=C(C=CC3=C4c3ccc[nH]3)c3ccc2[nH]3)cc1` gave a fluorescence lifetime (in ClC(Cl)Cl) of 4 ns.

Turning to `CCN(CC)c1ccc2cc(C#N)/c(=N\C(=O)C(C)C)oc2c1`, where the note is “in ClCCl”, the fluorescence lifetime amounted to 3.1 ns.

`CN(C)c1ccc(-c2nc(C#N)c(C#N)n2C)cc1`: the fluorescence lifetime runs as follows: (in C1CCCCC1) 1.3 ns; (in ClC(Cl)Cl) 3.5 ns.

Turning to `C(=C\N1CCCC1)/c1nc2ccccc2nc1-c1ccccc1`, the fluorescence lifetime is, setting by setting: (in C1CCCCC1) 2.3 ns; (in C1CCOC1) 8.42 ns; (in CC#N) 5.28 ns; (in CC(C)=O) 6.88 ns; (in CCO) 0.49 ns; (in CO) 0.15 ns. The fluorescence lifetime runs as follows: (in CS(C)=O) 2.97 ns; (in Cc1ccccc1) 6.52 ns; (in ClCCl) 10.2 ns.

`C#CCn1c2ccccc2c2cc(/C=C/c3cc(C)c4n3[B-](F)(F)[N+]3=C(C)C=C(C)C3=C4c3ccc(I)cc3)ccc21`: the fluorescence lifetime came out at 4.03 ns (in CC#N), 3.64 ns (in CS(C)=O) and 3.93 ns (in ClC(Cl)Cl).
